According to US20130225694A1, “COMPOSITIONS AND METHODS OF INHIBITING RETINAL DEGENERATION” (Oklahoma Medical Research Foundation, priority 2012, published 2013):
Where two headings read alike, the source gives them in different places.

Columns and labels:
RPE65 isomerohydrolase = target: T1, RPE65 isomerohydrolase (Bos taurus, UniProt Q28175); assay: In vitro RPE65 isomerohydrolase assay with bovine RPE microsomes (Example 3); assay type: biochemical; conditions: for RPE65 inhibition compared with PBN: summary of Table 1
T1 construct: Bovine RPE microsomes were used as a source of the RPE65 protein; from tissue; host or cells: bovine RPE microsomes
T1 sequence (Q28175 whole entry): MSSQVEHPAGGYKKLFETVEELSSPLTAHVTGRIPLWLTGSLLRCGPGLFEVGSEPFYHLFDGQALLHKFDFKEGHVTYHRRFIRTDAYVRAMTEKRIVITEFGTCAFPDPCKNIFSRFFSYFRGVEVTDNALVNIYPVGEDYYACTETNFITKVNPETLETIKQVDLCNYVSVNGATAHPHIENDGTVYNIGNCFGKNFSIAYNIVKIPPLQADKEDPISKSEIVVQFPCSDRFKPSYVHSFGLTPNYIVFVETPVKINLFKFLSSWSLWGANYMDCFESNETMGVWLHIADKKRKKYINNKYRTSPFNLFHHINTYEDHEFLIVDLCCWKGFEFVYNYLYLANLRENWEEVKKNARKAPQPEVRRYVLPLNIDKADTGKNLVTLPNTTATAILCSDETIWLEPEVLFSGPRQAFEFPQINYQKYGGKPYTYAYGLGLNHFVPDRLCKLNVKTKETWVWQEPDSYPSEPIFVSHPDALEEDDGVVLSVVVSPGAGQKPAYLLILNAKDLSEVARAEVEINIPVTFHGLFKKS
From the text: In this Example, the effect of several PBN analogs on RPE65 isomerohydrolase activity was investigated in an in vitro assay. The chemical structures of the PBN analogs utilized are described herein above. Bovine RPE microsomes were used as a source of the RPE65 protein and all-trans-[^3H] retinol was a substrate for the isomerohydrolase assay. The produced 11-cis-[^3H] retinol was quantified by normal phase HPLC with flow scintillation analyzer. The inhibition of isomerohydrolase activity was dependent on the PBN analog's concentration.
FIG. 9 also illustrates the calculation of IC50 values for the two difluoro-PBN analogs. IC50 values are the concentration of the inhibitor that inhibits 50% of the enzymatic activity. Therefore, the smaller the IC50 value, the better the drug.

Rat Retina = assay: Light-induced retinal degeneration in rats, systemic (IP) nitrone; ERG and ONL histology; conditions: for A-Wave value at 4 cd·sec/m^2 / B-Wave value at 4 cd·sec/m^2 / A-Wave value at 400 cd·sec/m^2 / B-Wave value at 400 cd·sec/m^2 / % Protection (A-Wave at 4 cd·sec/m^2) / % Protection (A-Wave at 400 cd·sec/m^2) / % Protection (B-Wave at 4 cd·sec/m^2) / % Protection (B-Wave at 400 cd·sec/m^2) / ONL Thickness (μm) Inferior retina / ONL Thickness (μm) Superior retina: 50 mg/kg IP 0.5 h before 2,700 lux 6 h; for A-Wave value at 4 cd·sec/m^2 / B-Wave value at 4 cd·sec/m^2: ERG flash 4.0 cd·sec/m^2 (mostly rod function); for A-Wave value at 400 cd·sec/m^2 / B-Wave value at 400 cd·sec/m^2: ERG flash 400.0 cd·sec/m^2 (rod and cone function); for % Protection (A-Wave at 4 cd·sec/m^2) / % Protection (A-Wave at 400 cd·sec/m^2) / % Protection (B-Wave at 4 cd·sec/m^2) / % Protection (B-Wave at 400 cd·sec/m^2) / % Protection (ONL, Inferior retina) / % Protection (ONL, Superior retina): NLD = 100, Saline LD = 0; for ONL Thickness (μm) Inferior retina / ONL Thickness (μm) Superior retina: histology; for protection of retinal function (ERG A- and B-wave) / protective effect on retinal photoreceptors compared with PBN: 50 mg/kg IP; for protection of retinal function (ERG A- and B-wave): FIGS. 11-12; for protective effect on retinal photoreceptors compared with PBN: ONL histology (FIGS. 14-16)
Procedure: Consistent with previous publications (1-2,5), a dose of 50 mg/kg PBN and S-PBN dissolved in saline was chosen for intraperitoneal injection in the rats in the treatment group. An equal volume of saline was injected into control rats.
A light-stress paradigm of 2,700 lux for 6 hours was used to test the effect of PBN at different time points before (0.5 hour, 3 hours, 6 hours, 12 hours, 16 hours, and 24 hours) or after (0.5 hour and 3 hours) light exposure. The effect of S-PBN was tested using the same dose and protocol of PBN at 0.5 hours before light exposure.
Electroretinography—After light exposure, rats were returned to their dim cyclic light (5-10 lux) environment for 7 days before ERG recordings were performed. Flash ERGs were recorded with the Diagnosys Espion E2 ERG System (Diagnosys, LLC, Lowell, Mass.). Rats were maintained in total darkness overnight and prepared for ERG recording under dim red light. They were anesthetized with ketamine (120 mg/kg body weight) and xylazine (6 mg/kg body weight) intramuscularly (IM). One drop of 10% (v/v) phenylephrine was applied to the cornea to dilate the pupil, and one drop of 0.5% (v/v) proparacaine HCl was applied for local anesthesia. Rats were kept on a heating pad at 37° C. during recordings. A gold electrode was placed on the cornea, a reference electrode was positioned in the mouth, and a ground electrode was placed on the foot; rats were then placed inside a Ganzfeld illuminating sphere. Responses were differentially amplified, averaged, and stored. For the assessment of rod photoreceptor function (scotopic ERG), five strobe flash stimuli were presented at flash intensities at −2.3, −1.3, 0.7, and 2.7 log cd·s/m^2. The amplitude of the a-wave was measured from the pre-stimulus baseline to the a-wave trough. The amplitude of the b-wave was measured from the trough of the a-wave to the peak of the b-wave. For the evaluation of cone function (photopic ERG), a strobe flash stimulus (3.3 log cd·s/m^2) was presented to dilated, light-adapted (5 minutes at 1.7 log cd·s/m^2) rats. The amplitude of the cone b-wave was measured from the trough of the a-wave to the peak of the b-wave.
Histology—After ERG recordings, rats were killed by carbon dioxide asphyxiation for light microscopic evaluation of retinal structure. Immediately after death, eyes were excised, placed in fixative (4% (w/v) paraformaldehyde, 2% (v/v) trichloroacetic acid, 20% (v/v) isopropyl alcohol, 2% (v/v) zinc chloride, and 72% (v/v) distilled water), and embedded in paraffin. Sections of 5 μm were cut along the vertical meridian through the optic nerve and stained with hematoxylin and eosin (H&E).
The PBN derivatives were injected intraperitoneally (IP) into albino SD rats at 50 mg/kg body weight at 0.5 hours before the start of light-damage exposure at 2,700 lux for 6 hours. After the exposure, the rats were moved to their dim cyclic room to recover for a week. Retinal damage/protection was assessed by functional analysis by ERG and structural analysis of histological sections. Dark adapted (12 hour) and Light adapted (for 2 hour) retinas were utilized as controls.

rhodopsin [1] = assay: Rhodopsin regeneration after bleach in rats, IP nitrone; assay type: in vivo, rat; conditions: Rattus norvegicus; rats, 50 mg/kg IP, 2 h room light then 2.5 h dark adaptation
Procedure: FIG. 10 graphically illustrates the effects of three PBN analogs of rhodopsin regeneration. Rhodopsin content was measured as nmole/retina following the procedure as in Mandal et al. (J Biol. Chem. 2011. 286 (37):32491-501). After injection with PBN derivatives or vehicles (saline), rats were left in room light for 2 hours (light adapted or LA) and then moved to dark. At 2.5 hours dark adaptation (DA), retinas were harvested. DA-Control, Dark adapted (12 h) control retina without any treatment to show normal rhodopsin content.
Measurement of rhodopsin regeneration—To measure the effect of PBN on the rate of rhodopsin regeneration, dark-adapted rats were injected intraperitoneally with PBN (50 mg/kg) or PBS 0.5 hour prior to a 2 hour bleach in room light (˜400 lux). Immediately following the bleach (time=0 minutes), a group of PBN- and vehicle-treated rats were killed, and retinas were removed and snap frozen. The remaining rats were dark-adapted, and retinas were collected under dim red light at 45, 90, and 180 minutes after the bleach.
Rhodopsin measurements were performed as described previously (2,36) with slight modification. Briefly, under dim red light, each retina was homogenized in 450 μl of buffer containing 10 mM Tris-HCl (pH 7.4), 150 mM NaCl, 1 mM EDTA, 2% (w/v) octylglucoside, and 50 mM hydroxylamine. Homogenates were centrifuged at 16,000 g, and soluble lysates were scanned from 270-800 nm in a spectrophotometer (Ultrospec 3000 UV/Vis Spectrophotometer, GE Healthcare, Piscataway, N.J.). Samples were then bleached under room light for 10 minutes and scanned again. The difference spectra at 500 nm between pre- and post-bleached samples were used to determine rhodopsin content using a molar extinction coefficient of […] (37). The values were normalized to the total lysate volume, and data are presented as rhodopsin content/retina.

rhodopsin [2] = assay: Rhodopsin regeneration after topical eye drops in mice; assay type: in vivo, Balb/c mice; conditions: for % of Rhodopsin recovery: 5% in eye drop at 6, 3 and 0 h before dark adaptation, LA + 1 h DA, DA control = 100; for inhibition of rhodopsin regeneration as eye drop: eye drop formulation, summary of Table 7
Procedure: Panel A: Application scheme and harvesting of the eye. 3 h group received 2 applications and 6 h group received 3 applications. Panel B: Rhodopsin content was measured as pmole/eye. In 1 h in the dark, untreated eyes (NT-LA 1 h DA, no treatment-light adapted followed by 1 hour dark adaptation) and vehicle-treated eyes recovered 75-80% rhodopsin [dark-adapted (DA) control is 100%], whereas 3 h PBN recovered only 43% and 6 h PBN only 29%. (***P<0.0001 compared to vehicle, n=8; ##p<0.005 between 3 h and 6 h group, n=8).
An eye drop formulation was used with various absorption enhancers for topical application of PBN to mouse eyes. […] One hour dark adaptation followed by light causes 75-80% recovery of bleachable rhodopsin in the Balb/c mice (FIG. 18B, NT-LA 1 h DA). The eye drop without PBN (vehicle) had no effect on rhodopsin regeneration (FIG. 18B, vehicle).
Eye drop formulations were prepared as described in Example 7 and contained 5% or 10% of a PBN derivative. The eye drop formulations were applied to Balb/c mice by the 6 h group application scheme shown in FIG. 18A, in which the eye drops were applied at 6, 3, and 0 h before dark adaptation. The eye drops were applied to completely light-adapted mouse eyes, and the mice were then moved to the dark for 1 h to allow the regeneration of bleachable rhodopsin. One hour dark adaptation followed by light causes […] recovery of bleachable rhodopsin in untreated mice (00, No Treatment). The eye drop without any nitrones (vehicle) had no effect on rhodopsin regeneration (000, vehicle).

[3] = apparent IC50, bovine RPE microsomes, all-trans-[3H] retinol substrate (Table 1), read-out: IC50 Values for the Inhibition of RPE65 Isomerohydrolase Reaction
[4] = in vitro RPE65 isomerohydrolase IC50 values repeated in Table 7, read-out: IC50

| SMILES | IC50 (RPE65 isomerohydrolase; [3]) [µM] | IC50 (RPE65 isomerohydrolase; [4]) [µM] | A-Wave value at 4 cd·sec/m^2 (Rat Retina) | B-Wave value at 4 cd·sec/m^2 (Rat Retina) | A-Wave value at 400 cd·sec/m^2 (Rat Retina) | B-Wave value at 400 cd·sec/m^2 (Rat Retina) | % Protection (A-Wave at 4 cd·sec/m^2) (Rat Retina) [%] | % Protection (A-Wave at 400 cd·sec/m^2) (Rat Retina) [%] | % Protection (B-Wave at 4 cd·sec/m^2) (Rat Retina) [%] | % Protection (B-Wave at 400 cd·sec/m^2) (Rat Retina) [%] | ONL Thickness (μm) Inferior retina (Rat Retina) [μm] | ONL Thickness (μm) Superior retina (Rat Retina) [μm] | protection of retinal function (ERG A- and B-wave) (Rat Retina) | protective effect on retinal photoreceptors compared with PBN (Rat Retina) | % Protection (ONL, Inferior retina) (Rat Retina) [%] | % Protection (ONL, Superior retina) (Rat Retina) [%] | inhibition at 50 mg/kg (rhodopsin [1]) [%] | % of Rhodopsin recovery (rhodopsin [2]) [%] | inhibition of rhodopsin regeneration as eye drop (rhodopsin [2]) | RPE65 inhibition compared with PBN (RPE65 isomerohydrolase) |
| --- | --- | --- | --- | --- | --- | --- | --- | --- | --- | --- | --- | --- | --- | --- | --- | --- | --- | --- | --- | --- |
| Cc1ccc(/C=[N+](\[O-])C(C)(C)C)cc1 [Compound 4, 4-Methylphenyl t-butyl nitrone] | 100 | 100 | 126.4 | 369.9 | 191.3 | 443.9 | 65.9 | 63.6 | 48.1 | 54.7 | 36.2 ± 1.0 | 35.2 ± 1.2 | protected retinal function significantly | slightly lower than that observed for PBN | 79.7 | 79.1 | 54 | 32.54 | more effective in inhibiting rhodopsin regeneration than PBN | – |
| CC(C)(C)/[N+]([O-])=C/c1ccc(F)cc1 [Compound 2, 4-Fluorophenyl t-butyl nitrone] | 60 | 60 | 163.0 | 572.4 | 295.7 | 762.6 | 90.4 | 102.3 | 79.5 | 99.8 | 42.4 ± 1.3 | 42.0 ± 1.4 | protected retinal function significantly | comparable to PBN, and even appears to provide more protection than PBN | 100 | 96.2 | 88 | 81.15 | not effective at inhibiting rhodopsin regeneration | more effective at inhibiting RPE65 activity than the native PBN molecule |
| CCOc1ccc(/C=[N+](\[O-])C(C)(C)C)cc1 [Compound 6, 4-Ethoxyphenyl t-butyl nitrone] | > 2000 | > 2000 | – | – | – | – | – | – | – | – | – | – | – | – | – | – | – | 81.99 | – | – |
| COc1ccc(/C=[N+](\[O-])C(C)(C)C)cc1 [Compound 5, 4-Methoxyphenyl t-butyl nitrone] | 500 | 500 | – | – | – | – | – | – | – | – | – | – | – | – | – | – | – | 79.10 | – | – |
| CC(C)(C)/[N+]([O-])=C/c1cccc(F)c1 [Compound 8, 3-Fluorophenyl t-butyl nitrone] | 280 | 280 | – | – | – | – | – | – | – | – | – | – | – | – | – | – | – | – | – | – |
| CC(C)(C)/[N+]([O-])=C/c1ccc(C(F)(F)F)cc1 [Compound 3, 4-Trifluoromethylphenyl t-butyl nitrone] | 60 | 60 | 148.1 | 478.7 | 234.7 | 560.0 | 80.4 | 79.7 | 64.9 | 71.2 | 39.8 ± 1.1 | 36.8 ± 1.4 | protected retinal function significantly | comparable to that of PBN | 91.6 | 83.1 | 82 | 52.80 | more effective in inhibiting rhodopsin regeneration than PBN | more effective at inhibiting RPE65 activity than the native PBN molecule |
| CC(C)(C)/[N+]([O-])=C/c1ccc(F)c(F)c1 [Compound 10, 3,4-Difluorophenyl t-butyl nitrone] | 50 | 50 | – | – | – | – | – | – | – | – | – | – | – | – | – | – | – | 39.31 | more effective in inhibiting rhodopsin regeneration than PBN | more effective at inhibiting RPE65 activity than the native PBN molecule |
| CC(C)(C)/[N+]([O-])=C/c1cc(F)cc(F)c1 [Compound 9, 3,5-Difluorophenyl t-butyl nitrone] | 500 | 500 | – | – | – | – | – | – | – | – | – | – | – | – | – | – | – | – | – | – |
| CC(C)(C)/[N+]([O-])=C/c1ccccc1F [Compound 7, 2-Fluorophenyl t-butyl nitrone] | 1300 | 1300 | – | – | – | – | – | – | – | – | – | – | – | – | – | – | – | – | – | – |
